Measured values: the supplement of paper PMC10307832

What was measured:
Assay in all cases: relative viability (nuclei count vs DMSO), 5 days (fraction); higher = more cells survive
Metformin + OSI-027 = compound: CN(C)C(=N)NC(=N)N [Metformin] + COc1cccc2cc(-c3nc([C@H]4CC[C@H](C(=O)O)CC4)n4ncnc(N)c34)[nH]c12 [OSI-027] (partner 0.5 µM)
Method in brief: (§1)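 A single step with final 0.05% Triton X-100, 1% formaldehyde and 1 ug/ml Hoechst fixed the cells and stained nuclei 5 days after treatment. Lung cancer cell lines in 1536-well plates had been treated by pin tool the day after seeding with one drug alone or a fixed anchor-drug dose plus five library-drug doses (not always all listed) in √10 steps, and nuclei were counted on 4× images. Relative viability is the ratio of nuclei in treated wells to nuclei in vehicle wells, taken as the median of duplicate plates.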

Metformin + Crizotinib = compound: CN(C)C(=N)NC(=N)N [Metformin] + C[C@@H](Oc1cc(-c2cnn(C3CCNCC3)c2)cnc1N)c1c(Cl)ccc(F)c1Cl [Crizotinib] (partner 1 µM)
Method in brief: as §1

Metformin + Decitabine = compound: CN(C)C(=N)NC(=N)N [Metformin] + Nc1ncn([C@H]2C[C@H](O)[C@@H](CO)O2)c(=O)n1 [Decitabine] (partner 2 µM)
Method in brief: as §1

Apatinib + OSI-027 = compound: N#CC1(c2ccc(NC(=O)c3cccnc3NCc3ccncc3)cc2)CCCC1 [Apatinib] + COc1cccc2cc(-c3nc([C@H]4CC[C@H](C(=O)O)CC4)n4ncnc(N)c34)[nH]c12 [OSI-027] (partner 0.5 µM)
Method in brief: as §1

HCC-827
relative viability (Metformin + OSI-027; first compound 31.62 µM): 0.714 | relative viability (Metformin + OSI-027; first compound 100 µM): 0.704 | relative viability (Metformin + OSI-027; first compound 316.23 µM): 0.586 | relative viability (Metformin + OSI-027; first compound 1000 µM): 0.73 | relative viability (Metformin + Crizotinib; first compound 31.62 µM): 0.87 | relative viability (Metformin + Crizotinib; first compound 100 µM): 0.903 | relative viability (Metformin + Crizotinib; first compound 316.23 µM): 0.849 | relative viability (Metformin + Crizotinib; first compound 1000 µM): 0.888 | relative viability (Metformin + Decitabine; first compound 10 µM): 0.321 | relative viability (Metformin + Decitabine; first compound 31.62 µM): 0.315 | relative viability (Metformin + Decitabine; first compound 100 µM): 0.312 | relative viability (Metformin + Decitabine; first compound 316.23 µM): 0.322 | relative viability (Metformin + Decitabine; first compound 1000 µM): 0.364 | relative viability (Apatinib + OSI-027; first compound 0.08 µM): 0.856 | relative viability (Apatinib + OSI-027; first compound 0.253 µM): 0.742 | relative viability (Apatinib + OSI-027; first compound 0.8 µM): 0.575 | relative viability (Apatinib + OSI-027; first compound 2.53 µM): 0.719 | relative viability (Apatinib + OSI-027; first compound 8 µM): 0.642

NCI-H441
relative viability (Metformin + OSI-027; first compound 31.62 µM): 0.665 | relative viability (Metformin + OSI-027; first compound 100 µM): 0.519 | relative viability (Metformin + OSI-027; first compound 316.23 µM): 0.393 | relative viability (Metformin + OSI-027; first compound 1000 µM): 0.46 | relative viability (Metformin + Crizotinib; first compound 10 µM): 0.337 | relative viability (Metformin + Crizotinib; first compound 100 µM): 0.638 | relative viability (Metformin + Crizotinib; first compound 316.23 µM): 0.457 | relative viability (Metformin + Crizotinib; first compound 1000 µM): 0.655 | relative viability (Metformin + Decitabine; first compound 31.62 µM): 0.236 | relative viability (Metformin + Decitabine; first compound 100 µM): 0.262 | relative viability (Metformin + Decitabine; first compound 316.23 µM): 0.217 | relative viability (Metformin + Decitabine; first compound 1000 µM): 0.262 | relative viability (Apatinib + OSI-027; first compound 0.08 µM): 0.609 | relative viability (Apatinib + OSI-027; first compound 0.253 µM): 0.625 | relative viability (Apatinib + OSI-027; first compound 0.8 µM): 0.541 | relative viability (Apatinib + OSI-027; first compound 2.53 µM): 0.436 | relative viability (Apatinib + OSI-027; first compound 8 µM): 0.339

LCLC-103H
relative viability (Metformin + OSI-027; first compound 10 µM): 0.51 | relative viability (Metformin + OSI-027; first compound 31.62 µM): 0.624 | relative viability (Metformin + OSI-027; first compound 100 µM): 0.555 | relative viability (Metformin + OSI-027; first compound 316.23 µM): 0.461 | relative viability (Metformin + OSI-027; first compound 1000 µM): 0.506 | relative viability (Metformin + Crizotinib; first compound 10 µM): 1.13 | relative viability (Metformin + Crizotinib; first compound 31.62 µM): 1.19 | relative viability (Metformin + Crizotinib; first compound 100 µM): 1.11 | relative viability (Metformin + Crizotinib; first compound 316.23 µM): 1.1 | relative viability (Metformin + Crizotinib; first compound 1000 µM): 1.09 | relative viability (Metformin + Decitabine; first compound 10 µM): 0.72 | relative viability (Metformin + Decitabine; first compound 31.62 µM): 0.738 | relative viability (Metformin + Decitabine; first compound 100 µM): 0.714 | relative viability (Metformin + Decitabine; first compound 316.23 µM): 0.714 | relative viability (Metformin + Decitabine; first compound 1000 µM): 0.788 | relative viability (Apatinib + OSI-027; first compound 0.08 µM): 0.495 | relative viability (Apatinib + OSI-027; first compound 0.253 µM): 0.477 | relative viability (Apatinib + OSI-027; first compound 0.8 µM): 0.384 | relative viability (Apatinib + OSI-027; first compound 2.53 µM): 0.401 | relative viability (Apatinib + OSI-027; first compound 8 µM): 0.457

HARA
relative viability (Metformin + OSI-027; first compound 31.62 µM): 0.6 | relative viability (Metformin + OSI-027; first compound 100 µM): 0.529 | relative viability (Metformin + OSI-027; first compound 316.23 µM): 0.47 | relative viability (Metformin + OSI-027; first compound 1000 µM): 0.515 | relative viability (Metformin + Crizotinib; first compound 10 µM): 1.13 | relative viability (Metformin + Crizotinib; first compound 31.62 µM): 1.09 | relative viability (Metformin + Crizotinib; first compound 100 µM): 1.15 | relative viability (Metformin + Crizotinib; first compound 316.23 µM): 1.01 | relative viability (Metformin + Crizotinib; first compound 1000 µM): 1.08 | relative viability (Metformin + Decitabine; first compound 10 µM): 0.722 | relative viability (Metformin + Decitabine; first compound 31.62 µM): 0.498 | relative viability (Metformin + Decitabine; first compound 100 µM): 0.581 | relative viability (Metformin + Decitabine; first compound 316.23 µM): 0.621 | relative viability (Metformin + Decitabine; first compound 1000 µM): 0.68 | relative viability (Apatinib + OSI-027; first compound 0.08 µM): 0.782 | relative viability (Apatinib + OSI-027; first compound 0.253 µM): 0.359 | relative viability (Apatinib + OSI-027; first compound 0.8 µM): 0.482 | relative viability (Apatinib + OSI-027; first compound 2.53 µM): 0.448 | relative viability (Apatinib + OSI-027; first compound 8 µM): 0.303

201T
relative viability (Metformin + OSI-027; first compound 31.62 µM): 0.955 | relative viability (Metformin + OSI-027; first compound 100 µM): 0.875 | relative viability (Metformin + OSI-027; first compound 316.23 µM): 0.881 | relative viability (Metformin + OSI-027; first compound 1000 µM): 0.517 | relative viability (Metformin + Crizotinib; first compound 31.62 µM): 1.04 | relative viability (Metformin + Crizotinib; first compound 100 µM): 1.07 | relative viability (Metformin + Crizotinib; first compound 316.23 µM): 0.965 | relative viability (Metformin + Crizotinib; first compound 1000 µM): 1 | relative viability (Metformin + Decitabine; first compound 31.62 µM): 0.824 | relative viability (Metformin + Decitabine; first compound 100 µM): 0.805 | relative viability (Metformin + Decitabine; first compound 316.23 µM): 0.799 | relative viability (Metformin + Decitabine; first compound 1000 µM): 0.776 | relative viability (Apatinib + OSI-027; first compound 0.253 µM): 0.763 | relative viability (Apatinib + OSI-027; first compound 0.8 µM): 0.718 | relative viability (Apatinib + OSI-027; first compound 2.53 µM): 0.723 | relative viability (Apatinib + OSI-027; first compound 8 µM): 0.751
